Measurements taken from article PMC4945070 (PLoS Neglected Tropical Diseases, 2016).
Where a name gives a salt, the structure may show the parent alone.

Columns and labels:
Assay in all cases: cell-based
Parameters in all cases: Emax: dose or concentration left out as unconfirmed
[1] = target: H. contortus L-AChR1.4 (UNC-63, UNC-38, ACR-8, UNC-29.4) (Haemonchus contortus, UniProt A9XX24+D6MYF2+D6MYF3+D6MYF4); type: cell-based; conditions: for Emax at 100 µM: agonists at 100 μM, normalized to 100 μM acetylcholine; for Emax at 100 µM / Emax: read-out: Max. Current ± S.E.; for blocking of ACh elicited currents / Max Inhibition ± S.E.: dTC 100 μM, DHβE 10 μM, MECA 30 μM; for blocking of ACh elicited currents: 100 μM ACh; for Max Inhibition ± S.E.: inhibition of 100 μM ACh current
Experimental: (§1) The H. contortus cDNAs encoding AChR subunits and ancillary proteins were available as expression clones in the pTB207 vector and C. elegans expression clones were a gift from T. Boulin.. cRNA synthesis of each construct required NheI-linearized templates and was performed with the mMessage mMachine T7 Kit (Ambion) according to the manufacturer’s instructions. cRNAs were precipitated with lithium chloride and redissolved in RNAse-free water and stored at -80°C. cRNA concentration was determined using a Nanodrop spectrophotometer (Thermo Scientific) and cRNA purity and integrity was assessed by electrophoresis through a 1% gel stained with GreenGlo nucleic acid dye (Denville Scientific Inc.).
(§2) Oocytes were collected from mature Xenopus females according to standard procedures and incubated at 19°C in a ND96 solution (NaCl 96 mM, KCl 2 mM, CaCl2 1.8 mM, MgCl2 1 mM, and HEPES 5 mM, pH 7.3 supplemented with sodium pyruvate 2.5 mM). Defolliculated oocytes were injected into the animal pole with approximately 36 nL of a cRNA mix containing 50 ng/μL of each cRNA in RNAse-free water using the Nanoject system (Drummond Scientific, Broomall, PA). Negative controls consisted of oocytes injected with RNAse-free water. Oocytes were then stored at 19°C in ND96 for 5 days to allow receptor expression. In order to prevent activation of endogenous calcium-activated chloride channels, the oocytes were incubated in ND96 supplemented with 100 μM of the calcium chelator BAPTA-AM, 4h prior to recording.
(§3) Two-electrode voltage-clamp experiments were carried out using a perfusion system connected to a flat RC-1Z chamber (Harvard Apparatus). Glass electrodes were filled with 3M KCl and checked for resistance between 1 and 3 MΩ. The oocyte bath was connected to the ground through a 3 M KCl agar bridge. Agonist and antagonists were dissolved or diluted in recording solution (100 mM NaCl, 2.5 mM KCl, 1 mM CaCl2, 5 mM HEPES, pH 7.3). All measurements were performed using a Geneclamp 500B amplifier and Digidata 1322M (Axon Instruments), oocytes were voltage-clamped at -60 mV. Drug solutions were applied to oocytes by gravity flow using perfusion syringes directly connected to the chamber. Data were collected and analyzed using Clampex 9.2 and Clampfit 9.2 (Axon Instruments, Sunnyvale, CA, USA). Traces were filtered at 30 Hz and analyzed using GraphPad Prism 5.0 software (GraphPad Software, San Diego, CA, USA). Final results are presented as means ± SE.

[2] = target: H. contortus L-AChR1.3 (UNC-63, UNC-38, ACR-8, UNC-29.3) (Haemonchus contortus, UniProt A9XX24+D6MYF1+D6MYF3+D6MYF4); conditions: for Emax at 100 µM: agonists at 100 μM, normalized to 100 μM acetylcholine; for Emax at 100 µM / Emax: read-out: Max. Current ± S.E.; for blocking of ACh elicited currents / Max Inhibition ± S.E.: dTC 100 μM, DHβE 10 μM, MECA 30 μM; for blocking of ACh elicited currents: 100 μM ACh; for Max Inhibition ± S.E.: inhibition of 100 μM ACh current
Experimental: as §1, §2, §3

[3] = target: H. contortus L-AChR1.1 (UNC-63, UNC-38, ACR-8, UNC-29.1) (Haemonchus contortus, UniProt A9XX24+D6MYE9+D6MYF3+D6MYF4); conditions: for Emax at 100 µM: agonists at 100 μM, normalized to 100 μM acetylcholine; for Emax at 100 µM / Emax: read-out: Max. Current ± S.E.; for blocking of ACh elicited currents / Max. Inhibition ± S.E.: dTC 100 μM, DHβE 10 μM, MECA 30 μM; for blocking of ACh elicited currents: 100 μM ACh; for Max. Inhibition ± S.E.: inhibition of 100 μM ACh current
Experimental: as §1, §2, §3

[4] = read-out: blocking of ACh elicited currents

C[N+](C)(CCOc1ccccc1)Cc1ccccc1 [Bephenium, bephenium hydroxynaphtoate]
Emax at 100 µM ([1]; L-AChR1.4): 6.45 ± 0.84%
Emax at 100 µM ([2]; L-AChR1.3): 9.59 ± 0.83%
Emax at 100 µM ([3]; L-AChR1.1): 13.9 ± 1.7%

COc1cc2c3cc1Oc1cc(ccc1O)C[C@@H]1c4c(cc(OC)c(O)c4Oc4ccc(cc4)C[C@@H]3N(C)CC2)CC[N+]1(C)C [D-turbocurarine, (+)-tubocurarine chloride hydrate]
blocking of ACh elicited currents ([1]; L-AChR1.4): efficiently blocked the ACh responses
Max Inhibition ± S.E. ([1]; L-AChR1.4): 97.52 ± 1.09
blocking of ACh elicited currents ([2]; L-AChR1.3): efficiently blocked the ACh responses
Max Inhibition ± S.E. ([2]; L-AChR1.3): 99.98 ± 0.02
blocking of ACh elicited currents ([3]; L-AChR1.1): efficiently blocked the ACh responses
Max. Inhibition ± S.E. ([3]; L-AChR1.1): 99.63 ± 0.35

Br.CO[C@H]1CC=C2CCN3CCC4=C(CC(=O)OC4)[C@]23C1 [DHßE, Dihydro-berythroidine hydrobromide]
blocking of ACh elicited currents ([1]; L-AChR1.4): weak average inhibition
Max Inhibition ± S.E. ([1]; L-AChR1.4): 16.51 ± 5.73
blocking of ACh elicited currents ([2]; L-AChR1.3): weak average inhibition
Max Inhibition ± S.E. ([2]; L-AChR1.3): 23.55 ± 1.94
blocking of ACh elicited currents ([3]; L-AChR1.1): weak average inhibition
Max. Inhibition ± S.E. ([3]; L-AChR1.1): 15.98 ± 2.16

C[N+]1(C)CCN(c2ccccc2)CC1 [DMPP, 1,1-dimethyl-4-phenylpiperazinium iodide]
Emax at 100 µM ([1]; L-AChR1.4): 31.6 ± 1%
Emax at 100 µM ([2]; L-AChR1.3): 36.9 ± 3.93%
Emax at 100 µM ([3]; L-AChR1.1): 42 ± 1.41%

CNC1(C)C2CCC(C2)C1(C)C (centres unmarked) [Mecamylamine, mecamylamine hydrochloride]
MECA inhibition (summary) ([1]; L-AChR1.4): Full Inhibition
inhibition at 30 µM [1, 4]: 96.4 ± 1.9%
MECA inhibition (summary) ([2]; L-AChR1.3): Partial Inhibition
Max Inhibition ± S.E. ([2]; L-AChR1.3): 56.87 ± 3.18
inhibition at 30 µM [2, 4]: 56.9 ± 3.2%
MECA inhibition (summary) ([3]; L-AChR1.1): Full Inhibition
Max. Inhibition ± S.E. ([3]; L-AChR1.1): 99.91 ± 0.09
inhibition at 30 µM [3, 4]: 99.9 ± 0.1%

CN1CCC[C@H]1c1cccnc1 [Nicotine, (-)-nicotine hydrogen tartrate]
Emax [1]: 1.52 ± 0.47%
Emax [2]: 6.79 ± 1.46%
Emax [3]: 4.7 ± 1.05%

CN1CCCN=C1/C=C/c1cccs1 [Pyrantel, pyrantel citrate]
Emax [1]: 7.32 ± 0.98%
Emax [2]: 13.8 ± 1.26%
Emax [3]: 11.8 ± 0.99%
